Measured values: publication PMC6930500, “Structure–Activity Relationships of 7-Substituted Dimethyltyrosine-Tetrahydroisoquinoline Opioid Peptidomimetics” (Molecules, 2019)

Experiments:
human DOR [1] = target: T1, human DOR (Homo sapiens, UniProt P41143); test: [35S]-GTPγS binding stimulation, DOR; format: biochemical; conditions: mean (SEM), * n = 2; for % Stimulation DOR: versus 10 µM standard agonist DPDPE, dns = average maximal stimulation <10% at up to 10 µM
T1 construct: expressed in transfected cells; cell lines provided by Professor Lawrence Toll
Procedure: (§1) Each novel compound was evaluated for binding to and stimulation of KOR, MOR, and DOR. Binding affinity (Ki) was determined by competitive displacement of [^3H]-diprenorphine, a non-selective opioid receptor antagonist with similar affinity for each of the three receptors. Potency (EC50) and efficacy, expressed as percent stimulation compared to a standard agonist at each receptor, were determined by a [^35S]-GTPγS binding assay.
(§2) Membranes prepared from transfected Chinese Hamster Ovary cells stably expressing human KOR, human MOR, or human DOR were used for all assays. Cells were grown to confluence at 37 °C in 5% CO2 in 1:1 DMEM:F12 media with 10% v/v fetal bovine serum and 5% v/v penicillin/streptomycin. Membranes were prepared by washing confluent cells three times with ice cold phosphate-buffered saline (0.9% NaCl, 0.61 mM Na2HPO4, 0.38 mM KH2PO4, pH 7.4). Cells were detached from the plates by incubation in warm harvesting buffer (20 mM HEPES, 150 mM NaCl, 0.68 mM EDTA, pH 7.4) and pelleted by centrifugation at 200× g for 3 min. The cell pellet was suspended in ice-cold 50 mM Tris-HCl buffer, pH 7.4 and homogenized with a Tissue Tearor (Biospec Products, Inc, distributed by Cole-Parmer, Vernon Hills, IL, USA) for 20 s at setting 4. The homogenate was centrifuged at 20,000× g for 20 min at 4 °C, and the pellet was rehomogenized in 50 mM Tris-HCl pH 7.4 with a Tissue Tearor for 10 s at setting 2, followed by recentrifugation. The final pellet was resuspended in 50 mM Tris-HCl pH 7.4 and frozen in aliquots at −80 °C. Protein concentration was determined via Pierce BCA protein assay kit using bovine serum albumin as the standard.
(§3) Agonist stimulation of KOR, MOR, and DOR by all test compounds was determined by [^35S]-guanosine 5′-O-[γ-thio]triphosphate ([^35S]-GTPγS) binding assays as previously reported. In a 96-well plate format, membranes from cells expressing opioid receptors as described above (10 µg of protein), [^35S]-GTPγS (0.1 nM), and guanosine diphosphate (30 µM) were incubated in GTPγS buffer (50 mM Tris-HCl, 100 mM NaCl, 5 mM MgCl2, 1 mM EDTA, pH 7.4) with various concentrations of test compound at 25 °C for 1 h. Basal stimulation was determined by incubation in the absence of any ligand. After incubation, membranes were filtered through Whatman GF/C 1.2 micron glass fiber filters and washed with GTPγS buffer with no EDTA. The radioactivity remaining on the filters was then quantified by liquid scintillation counting after saturation with EcoLume liquid scintillation cocktail in a Perkin-Elmer Microbeta 2450. Data are reported as percent stimulation compared to the effects of 10 µM standard agonists—U69,593 (KOR), DAMGO (MOR), or DPDPE (DOR). Percent stimulation and EC50 values were determined via nonlinear regression analysis using GraphPad Prism software from at least three separate assays performed in duplicate. Efficacy is expressed as percent stimulation relative to standard agonists.

human MOR [2] = target: T2, human MOR (Homo sapiens, UniProt P35372); test: [3H]-diprenorphine competitive displacement binding, MOR; conditions: for Ki: membranes from CHO cells expressing human MOR, mean (SEM), n>=3 in duplicate
T2 construct: expressed in transfected cells; cell lines provided by Professor Lawrence Toll
Procedure: as §1, §2
(§4) Binding affinities for all test compounds at KOR, MOR, and DOR were determined by competitive displacement of [^3H]-diprenorphine as previously reported. In a 96-well plate format, cell membranes (5–10 µg of protein) and [^3H]-diprenorphine (0.2 nM) were incubated in Tris-HCl buffer (50 mM, pH 7.4) with various concentrations of test compound at 25 °C for 1 h, allowing the mixture to reach equilibrium. Nonspecific binding was determined using the opioid antagonist naloxone (10 µM), and total binding was determined using vehicle in the absence of competitive ligand. After incubation, membranes were filtered through Whatman GF/C 1.2 micron glass fiber filters and washed with 50 mM Tris-HCl buffer. The radioactivity remaining on the filters was then quantified by liquid scintillation counting after saturation with EcoLume liquid scintillation cocktail in a Microbeta 2450 (Perkin-Elmer, Waltham, MA, USA). Binding affinity (Ki) values were calculated using the Cheng–Prusoff equation via nonlinear regression analysis using GraphPad Prism software from at least three separate binding assays performed in duplicate.

human KOR [3] = target: T3, human KOR (Homo sapiens, UniProt P41145); test: [35S]-GTPγS binding stimulation, KOR; format: biochemical; conditions: mean (SEM); for EC50 / EC50 KOR: CHO-human KOR membranes, * n = 2, dns = does not stimulate, average maximal stimulation <10% at up to 10 µM; for Emax / % Stimulation KOR: versus 10 µM standard agonist U69,593, dns = average maximal stimulation <10% at up to 10 µM
T3 construct: expressed in transfected cells; cell lines provided by Professor Lawrence Toll
Procedure: as §1, §2, §3

human DOR [4] = target: T1, human DOR; test: [3H]-diprenorphine competitive displacement binding, DOR; conditions: membranes from CHO cells expressing human DOR; mean (SEM), n>=3 in duplicate
Procedure: as §1, §2, §4

human KOR [5] = target: T3, human KOR; test: [3H]-diprenorphine competitive displacement binding, KOR; conditions: for Ki: membranes from CHO cells expressing human KOR, mean (SEM), n>=3 in duplicate
Procedure: as §1, §2, §4

human MOR [6] = target: T2, human MOR; test: [35S]-GTPγS binding stimulation, MOR; format: biochemical; conditions: mean (SEM), * n = 2; for EC50: CHO-human MOR membranes, dns = does not stimulate, average maximal stimulation <10% at up to 10 µM; for Emax: versus 10 µM standard agonist DAMGO, dns = average maximal stimulation <10% at up to 10 µM
Procedure: as §1, §2, §3

[7] = CHO-human DOR membranes, dns = does not stimulate, average maximal stimulation <10% at up to 10 µM

Row | SMILES | EC50 DOR (human DOR [1]; [7]) | % Stimulation DOR (human DOR [1]) | Ki (human MOR [2]) [nM] | EC50 (human KOR [3]) [nM] | Emax (human KOR [3]) [%] | Ki (human DOR [4]) [nM] | Ki (human KOR [5]) [nM] | EC50 (human MOR [6]) [nM] | Emax (human MOR [6]) [%] | higher affinity for MOR than for DOR (human MOR [2]; ratio of Ki values) | higher affinity for KOR than for DOR (human KOR [5]; ratio of Ki values) | EC50 (human DOR [1]; [7]) [nM] | EC50 KOR (human KOR [3]) | % Stimulation KOR (human KOR [3])
1 | COc1ccccc1Cc1ccc2c(c1)CN(C(=O)[C@@H](N)Cc1c(C)cc(O)cc1C)CC2 [Compound 8a, (S)-2-amino-3-(4-hydroxy-2,6-dimethylphenyl)-1-(7-(2-methoxybenzyl)-3,4-dihydroisoquinolin-2(1H)-yl)propan-1-one] | dns * | dns * | 3.7 | 130 | 72 | 2.7 | 3.1 | 92 | 37 | – | – | – | – | –
2 | Cc1cc(O)cc(C)c1C[C@H](N)C(=O)N1CCc2ccc(Cc3ccccc3O)cc2C1 [Compound 8b, (S)-2-amino-3-(4-hydroxy-2,6-dimethylphenyl)-1-(7-(2-hydroxybenzyl)-3,4-dihydroisoquinolin-2(1H)-yl)propan-1-one] | dns * | dns * | 1.2 | 11 | 89 | 2.5 | 0.32 | 43 | 60 | two-fold | eight-fold | – | – | –
3 | Cc1cc(O)cc(C)c1C[C@H](N)C(=O)N1CCc2ccc(Cc3ccccc3C(F)(F)F)cc2C1 [Compound 8c, (S)-2-amino-3-(4-hydroxy-2,6-dimethylphenyl)-1-(7-(2-(trifluoromethyl)benzyl)-3,4-dihydroisoquinolin-2(1H)-yl)propan-1-one] | – | 24 (3) % | 4.3 | 173 | 81 | 4.9 | 2.6 | 53 | 76 | – | – | 342 | – | –
4 | Cc1cc(O)cc(C)c1C[C@H](N)C(=O)N1CCc2ccc(Cc3ccccc3C#N)cc2C1 [Compound 8d, (S)-2-((2-(2-amino-3-(4-hydroxy-2,6-dimethylphenyl)propanoyl)-1,2,3,4-tetrahydroisoquinolin-7-yl)methyl)benzonitrile] | dns | dns | 6.8 | 3.7 | 80 | 3.6 | 0.5 | 664 | 31 | – | – | – | – | –
5 | COc1cccc(Cc2ccc3c(c2)CN(C(=O)[C@@H](N)Cc2c(C)cc(O)cc2C)CC3)c1 [Compound 8e, (S)-2-amino-3-(4-hydroxy-2,6-dimethylphenyl)-1-(7-(3-methoxybenzyl)-3,4-dihydroisoquinolin-2(1H)-yl)propan-1-one] | dns | dns | 2.7 | 148 | 74 | 1.7 | 3 | 24 | 48 | – | – | – | – | –
6 | Cc1cc(O)cc(C)c1C[C@H](N)C(=O)N1CCc2ccc(Cc3cccc(O)c3)cc2C1 [Compound 8f, (S)-2-amino-3-(4-hydroxy-2,6-dimethylphenyl)-1-(7-(3-hydroxybenzyl)-3,4-dihydroisoquinolin-2(1H)-yl)propan-1-one] | dns * | dns * | 0.6 | 148 | 83 | 1.4 | 0.8 | 18 | 81 | – | – | – | – | –
7 | Cc1cc(O)cc(C)c1C[C@H](N)C(=O)N1CCc2ccc(Cc3cccc(C(F)(F)F)c3)cc2C1 [Compound 8g, (S)-2-amino-3-(4-hydroxy-2,6-dimethylphenyl)-1-(7-(3-(trifluoromethyl)benzyl)-3,4-dihydroisoquinolin-2(1H)-yl)propan-1-one] | dns | dns | 4.1 | 319 | 68 | 1.6 | 5.4 | 205 | 45 | – | – | – | – | –
8 | Cc1cccc(Cc2ccc3c(c2)CN(C(=O)[C@@H](N)Cc2c(C)cc(O)cc2C)CC3)c1C [Compound 8i, (S)-2-amino-1-(7-(2,3-dimethylbenzyl)-3,4-dihydroisoquinolin-2(1H)-yl)-3-(4-hydroxy-2,6-dimethylphenyl)propan-1-one] | dns * | dns * | 5.2 | 1030 | 54 | 3.6 | 5.8 | 380 | 34 | – | – | – | – | –
9 | Cc1cc(O)cc(C)c1C[C@H](N)C(=O)N1CCc2ccc(Cc3cccnc3)cc2C1 [Compound 8j, (S)-2-amino-3-(4-hydroxy-2,6-dimethylphenyl)-1-(7-(pyridin-3-ylmethyl)-3,4-dihydroisoquinolin-2(1H)-yl)propan-1-one] | dns | dns | 5.4 | 988 | 40 | 1.5 | 56 | 145 | 23 | – | – | – | – | –
10 | Cc1cc(O)cc(C)c1C[C@H](N)C(=O)N1CCc2ccc(Cc3ccncc3)cc2C1 [Compound 8k, (S)-2-amino-3-(4-hydroxy-2,6-dimethylphenyl)-1-(7-(pyridin-4-ylmethyl)-3,4-dihydroisoquinolin-2(1H)-yl)propan-1-one] | dns | dns | 42 | 1180 | 44 | 2.6 | 44 | 179 | 28 | – | – | – | – | –
11 | Cc1cc(O)cc(C)c1C[C@H](N)C(=O)N1CCc2ccc(CN3CCCCC3)cc2C1 [Compound 8l, (S)-2-amino-3-(4-hydroxy-2,6-dimethylphenyl)-1-(7-(piperidin-1-ylmethyl)-3,4-dihydroisoquinolin-2(1H)-yl)propan-1-one] | dns | dns | 4.7 | – | – | 87 | 29 | 845 | 34 | – | – | – | dns | dns
12 | Cc1cc(O)cc(C)c1C[C@H](N)C(=O)N1CCc2ccc(CN3CCCC3)cc2C1 [Compound 8m, (S)-2-amino-3-(4-hydroxy-2,6-dimethylphenyl)-1-(7-(pyrrolidin-1-ylmethyl)-3,4-dihydroisoquinolin-2(1H)-yl)propan-1-one] | dns * | dns * | 17 | – | – | 175 | 69 | – | 40 | – | – | – | dns | dns
